Results: patent US7229966B2, “Compositions and methods for enhanced mucosal delivery of Y2 receptor-binding peptides and methods for treating and preventing obesity” (Nastech Pharmaceutical Company Inc., priority 2002, dated 2007)
Read-outs that look alike come from different tables or passages of the source. One block for each molecule: values may come before it.

Experiments:
[1] = system: ciliary motility; conditions: cited from earlier work
[2] = system: aminopeptidases; conditions: cited from earlier work
[3] = aqueous solution at physiologic pH; cited from earlier work
[4] = anesthetized rats, cited from earlier work
[5] = 0.5 mg/mL in phosphate buffer, pH 7.4; vortex mixing 1 min; cited from earlier work

Molecule: 2-alkyl-4-hydroxyquinolines [pyo compound]
concentration producing ciliostasis / inhibiting ciliary motility [1]: 50 µg/mL

melting point: 236 to 238 °C
Molecule: CC(C(=O)[O-])c1ccc(NC(=O)c2ccccc2O)cc1.[Na+] (stereo not drawn) [Sodium Salt of Carrier B, Sodium 2-(4-(N-salicyloyl)aminophenyl)propionate]

Molecule: CC(C)CC(N)B(O)O (stereo not drawn) [boro-leucine]
effectiveness in enzyme inhibition relative to bestatin [2]: more than 100 times | effectiveness in enzyme inhibition relative to puromycin [2]: more than 1000 times

Molecule: CCN(CC)/[N+]([O-])=N/O.CCNCC [diethylamine/NO]
NO release time [3]: < 3 min

Molecule: NCCN(CCN)/[N+]([O-])=N/O [diethylenetriamine/NO (DETANO), diethylenetriamine/NO]
NO release time [3]: approximately 20 hours

Molecule: human growth hormone (hGH): peptide hormone human growth hormone
nasal bioavailability ([4]; with N-acetyl-L-cysteine (ACS)): 12.2% | nasal bioavailability ([4]; without N-acetyl-L-cysteine): 7.5% | drug precipitated as insoluble aggregates [5]: 67%
